Test results as given in patent US10507247B2, “Optical probes for matrix metalloproteinases” (The University Court of the University of Edinburgh, priority 2015, dated 2019).
Like-named read-outs stand apart in the source and are kept apart here. One block for each compound: values may come before it. Primed or numbered codes have the meaning given here. Where no end group is shown, it is not given here. [ ]: non-standard residue; d: D form. The star is where a group is joined. 5FAM = O=C1OC2(c3ccc(O)cc3Oc3cc(O)ccc32)c2ccc(C(=O)*)cc21; PEG2′ = PEG spacer unit (glycol linker); K(MR) = not defined here; Nle = CCCC[C@H](N)C(=O)O; βAla = NCCC(=O)O

Assays:
MMP [1] = experiment: Probe specificity by target inhibition (FIG. 9); format: biochemical, human; details: probe 1 μM, 30 min, inhibitor 200 nM
Protocol: Probe specificity by target inhibition for probes A and probe B. Data represents the fluorescence signal provided by the probe (1 μM) after 30 min using a multiwell plate fluorimeter at excitation/emission 485/528 nm. To validate the specificity and ability of molecular probe to detect the target enzyme, probe fluorescence (initiated by cleavage) was measured in the presence of enzyme with/without inhibitor.
The enzyme assays were run in a 384-well format on a PCR opaque microplate (Thermo Scientific). All dilutions and reactions were prepared in MMP buffer (50 mM Tris, 10 mM CaCl2, 0.15M NaCl, 0.05% Brij-35, pH 7). Proteolytic activity was determined by calculating the fold change in fluorescence over background signal provided by the corresponding dilution of the probe and/or inhibitors with exogenous enzymes using a-multiwell plate fluorimeter (Synergy H1 Hybrid Reader, BioTek instruments Ltd) at excitation/emission 485/528 nm. Recombinant human MMPs (Catalytic domain MMP-1, -2, -3, -7, -8, -9, -10, -11, -12, -13 (Enzo Life Sciences) and Full-length MMP-2, -9, -12 and -13 (Merck/Millipore)) were used at 30 nM. Pro-MMP-13 (R & D Systems) was activated by incubating with 1 mM 4-aminophenylmercunc acetate (APMA) for 2 hrs at 37° C. […] For inhibition assays, enzyme and inhibitor were pre-incubated for 1 hr at 37° C. before the addition of molecular probe.

[2] = test system: MMPs-1, -2, -3, -7, -8, -9, -10, -11, -12, -13, Thrombin, Plasmin and Factor Xa; experiment: Enzyme specificity of the FRET branched probes with exogenous enzymes (FIG. 8); format: biochemical, human; details: probe 10 μM; MMPs 30 nM; Thrombin 5 U/ml, Plasmin 30 nM, Factor Xa 0.5 μM
Protocol: (§1) FIG. 8. Enzyme specificity of the FRET branched probes A, B and C. Data represents the average fold change in fluorescence over background signal provided by probe (10 μM) with exogenous enzymes using a multiwell plate fluorimeter (Synergy H1 Hybrid Reader, BioTek instruments Ltd) at excitation/emission 485/528 nm. Recombinant human catalytic domain MMPs-1, -2, -3, -7, -8, -9, -10, -11, -12, -13 were used at 30 nM. Recombinant human Thrombin, Plasmin and Factor Xa were used at 5 U/ml, 30 nM, 0.5 μM, respectively.
(§2) Three selected probes (A: AMF-106, B: SVC-186 B, and C: SVC-196) were evaluated in vitro in a new experiment including other members of the MMP family (MMPs-1, -2, -3, -7, -8, -9, -10, -11, -12, -13) as well as Thrombin, Plasmin and Factor Xa, and the results are shown in FIG. 8. […] The plasmin cleavage site was identified and attempts to make a resistant version replacing with D-aa in these positions were unsuccessful.
(§3) The enzyme assays were run in a 384-well format on a PCR opaque microplate (Thermo Scientific). All dilutions and reactions were prepared in MMP buffer (50 mM Tris, 10 mM CaCl2, 0.15M NaCl, 0.05% Brij-35, pH 7). Proteolytic activity was determined by calculating the fold change in fluorescence over background signal provided by the corresponding dilution of the probe and/or inhibitors with exogenous enzymes using a-multiwell plate fluorimeter (Synergy H1 Hybrid Reader, BioTek instruments Ltd) at excitation/emission 485/528 nm. Recombinant human MMPs (Catalytic domain MMP-1, -2, -3, -7, -8, -9, -10, -11, -12, -13 (Enzo Life Sciences) and Full-length MMP-2, -9, -12 and -13 (Merck/Millipore)) were used at 30 nM. Pro-MMP-13 (R & D Systems) was activated by incubating with 1 mM 4-aminophenylmercunc acetate (APMA) for 2 hrs at 37° C. Human neutrophil elastase (Elastase Product Company, used at 2.5 ug/ml), neutrophil lysate (lysed human neutrophils), and recombinant human Thrombin (Sigma-Aldrich, used at 5 U/ml), Plasmin (Sigma-Aldrich, used at 30 nM) and Factor Xa (Sigma-Aldrich, used at 0.5 μM) were used to identify the lead molecular probe sequences. For inhibition assays, enzyme and inhibitor were pre-incubated for 1 hr at 37° C. before the addition of molecular probe.

plasmin [3] = target: T1, plasmin (Homo sapiens, UniProt P00747); experiment: Enzyme kinetics of the molecular probe, plasmin; format: biochemical
T1 construct: purchased Sigma-Aldrich
Protocol: (§4) Enzyme kinetics of the molecular probe specificity to human MMP-2, MMP-9, MMP-13 and plasmin. The kinetic constants KM and Vmax were calculated for probe A and B (Table 8 below).
as §3, with “For inhibition assays, enzyme and inhibitor were pre-incubated for 1 hr at 37° C. before the addition of molecular probe.” left out

human MMP-2 = target: T2, human MMP-2 (Homo sapiens, UniProt P08253); experiment: Enzyme kinetics of the molecular probe, MMP-2; format: biochemical
T2 sequence (P08253 110-660): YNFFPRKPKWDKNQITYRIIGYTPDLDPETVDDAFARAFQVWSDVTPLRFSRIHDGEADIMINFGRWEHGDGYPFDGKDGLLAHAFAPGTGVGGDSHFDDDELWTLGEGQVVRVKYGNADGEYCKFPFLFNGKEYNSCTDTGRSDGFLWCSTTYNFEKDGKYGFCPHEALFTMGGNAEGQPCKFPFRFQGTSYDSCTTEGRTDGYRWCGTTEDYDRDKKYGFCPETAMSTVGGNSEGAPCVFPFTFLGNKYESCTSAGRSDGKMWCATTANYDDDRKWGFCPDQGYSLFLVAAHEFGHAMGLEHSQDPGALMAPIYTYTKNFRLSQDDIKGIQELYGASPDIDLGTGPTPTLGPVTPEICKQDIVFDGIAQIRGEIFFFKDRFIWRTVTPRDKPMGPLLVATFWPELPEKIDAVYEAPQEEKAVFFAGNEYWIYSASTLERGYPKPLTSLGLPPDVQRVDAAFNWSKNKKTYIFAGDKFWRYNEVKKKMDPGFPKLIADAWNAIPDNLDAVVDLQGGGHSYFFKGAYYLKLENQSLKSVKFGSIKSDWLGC
Protocol: as §4
as §3, with “For inhibition assays, enzyme and inhibitor were pre-incubated for 1 hr at 37° C. before the addition of molecular probe.” left out

human MMP-9 = human MMP-9 (Homo sapiens, UniProt P14780); experiment: Enzyme kinetics of the molecular probe, MMP-9; format: biochemical
Protocol: as §4
as §3, with “For inhibition assays, enzyme and inhibitor were pre-incubated for 1 hr at 37° C. before the addition of molecular probe.” left out

plasmin [4] = target: T1, plasmin; experiment: Susceptibility / stability of probes to plasmin; format: biochemical
Protocol: as §1
Also, to reduce degradation without altering the amino acid constituents we have synthesised variants including PEG units at the amino and/or carboxy termini in order to block degradation from the ends of the peptide sequence.
as §2
as §3, with “Human neutrophil elastase (Elastase Product Company, used at 2.5 ug/ml), neutrophil lysate (lysed human neutrophils), and recombinant human Thrombin (Sigma-Aldrich, used at 5 U/ml), Plasmin (Sigma-Aldrich, used at 30 nM) and Factor Xa (Sigma-Aldrich, used at 0.5 μM) were used to identify the lead molecular probe sequences. For inhibition assays, enzyme and inhibitor were pre-incubated for 1 hr at 37° C. before the addition of molecular probe.” left out

MMP-13 [5] = target: MMP-13 (Homo sapiens, UniProt P45452); experiment: Enzyme kinetics of the molecular probe, MMP-13; format: biochemical
Protocol: as §4
as §3, with “For inhibition assays, enzyme and inhibitor were pre-incubated for 1 hr at 37° C. before the addition of molecular probe.” left out

MMP-9 = experiment: Enzyme assay, fold change in probe fluorescence over background with MMP-9; format: biochemical, human; details: different probe scaffolds (monomer, dendrimers); MMP-9 83 kDa
Protocol: A library of probes (listed in Table 2 below) containing FAM (Carboxyfluorescein) as the fluorophore (donor) and MethylRed (MR) as the quencher (acceptor) and a variety of peptide sequences was synthesized by manual standard solid-phase Fmoc peptide chemistry (described below).
(§5) Enzyme specificity of the lead probes with exogenous enzymes was tested using a multiwell plate fluorimeter at excitation/emission 485/528 nm (Table 3). Recombinant human catalytic domain MMPs-1, -2, -3, -7, -8, -9, -10, -11, -12, -13 were used at 30 nM. Cleavage site for each sequence is indicated in italics.
(§6) The different compounds were also evaluated according to the fold change in fluorescent signal in presence of MMP-9 and MMP-13, and the results are shown in Table 7. From this comparison, the FRET dendrimers comprising SEQ ID NO.1 and SEQ ID NO.7 (AMF-106 and SVC-186) together with the 9Dendrimer comprising SEQ ID NO.7 (SVC-196) were chosen for further evaluation. These dendrimers are shown in FIG. 7, probe A (AMF-106), probe B (SVC-186) and probe C (SVC-196).
as §3

MMP-13 [6] = experiment: Enzyme assay, fold change in probe fluorescence over background with MMP-13; format: biochemical, human; details: different probe scaffolds (monomer, dendrimers); MMP-13 52 kDa
Protocol: as §5, §6, §3

MMP-2/9/13 in the lung = experiment: Ex vivo and in vivo ovine lung and human lung tissue imaging by fCFM; details: lung environment
Protocol: All compounds have undergone biological assessment. For stability we have assessed each compound in the presence of 0.9% NaCl (Saline) or pooled lavage fluid from patients with acute lung injury and analysed by matrix-assisted laser desorption/ionization (MALDI) or fourier transform mass spectrometry (FTMS). In vitro activation was assessed on benchtop confocal in the presence of compound with lung tissue samples. For the ex vivo and in vivo ovine lung (FIG. 11) and human lung tissue experiments (FIG. 12) each compound was assessed in a control lung segment (instilled with 2 ml PBS) or a fibrotic/cancer segment, the compound was administered to the segment of interest and this was imaged by probe based fCFM.

MMP [7] = experiment: Activation of probe variants by MMP in vitro; format: biochemical; details: additional quencher per probe element
Protocol: The selectivity of the probes, together with further probes AMF-14b, SVC-030 (both defined in Table 6 below) and SVC-068 (defined in Table 4 below), to detect MMP over elastase, another proteinase relevant in lung disease, was tested and the results for all probes are shown in FIG. 2.
Variants consisting of D-amino acids at the recognition site sequence with or without blocking PEG units were also synthesised and assessed.
as §3

T1 sequence (P00747 581-810 limits assumed): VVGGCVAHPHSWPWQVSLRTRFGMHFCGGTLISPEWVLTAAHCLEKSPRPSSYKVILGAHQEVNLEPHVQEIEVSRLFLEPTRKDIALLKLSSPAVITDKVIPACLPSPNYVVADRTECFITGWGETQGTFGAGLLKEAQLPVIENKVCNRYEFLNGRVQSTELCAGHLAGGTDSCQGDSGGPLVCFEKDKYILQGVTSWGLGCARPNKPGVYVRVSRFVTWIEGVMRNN
T1 sequence (P00747 97-580 partner limits assumed): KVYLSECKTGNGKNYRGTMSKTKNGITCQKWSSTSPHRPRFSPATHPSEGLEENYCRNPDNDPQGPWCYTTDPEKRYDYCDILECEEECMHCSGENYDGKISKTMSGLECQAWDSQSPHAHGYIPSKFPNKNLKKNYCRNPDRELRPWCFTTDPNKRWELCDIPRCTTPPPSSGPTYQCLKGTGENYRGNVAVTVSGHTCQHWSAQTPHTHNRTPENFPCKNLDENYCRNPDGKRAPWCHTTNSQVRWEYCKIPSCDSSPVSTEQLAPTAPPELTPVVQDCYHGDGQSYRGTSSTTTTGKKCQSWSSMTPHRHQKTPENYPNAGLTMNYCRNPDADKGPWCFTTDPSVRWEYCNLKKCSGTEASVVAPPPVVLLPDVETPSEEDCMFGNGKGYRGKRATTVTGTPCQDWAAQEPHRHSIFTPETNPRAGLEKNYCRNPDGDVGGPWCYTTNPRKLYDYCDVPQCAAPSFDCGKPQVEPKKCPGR
human MMP-9, sequence (P14780 94-707): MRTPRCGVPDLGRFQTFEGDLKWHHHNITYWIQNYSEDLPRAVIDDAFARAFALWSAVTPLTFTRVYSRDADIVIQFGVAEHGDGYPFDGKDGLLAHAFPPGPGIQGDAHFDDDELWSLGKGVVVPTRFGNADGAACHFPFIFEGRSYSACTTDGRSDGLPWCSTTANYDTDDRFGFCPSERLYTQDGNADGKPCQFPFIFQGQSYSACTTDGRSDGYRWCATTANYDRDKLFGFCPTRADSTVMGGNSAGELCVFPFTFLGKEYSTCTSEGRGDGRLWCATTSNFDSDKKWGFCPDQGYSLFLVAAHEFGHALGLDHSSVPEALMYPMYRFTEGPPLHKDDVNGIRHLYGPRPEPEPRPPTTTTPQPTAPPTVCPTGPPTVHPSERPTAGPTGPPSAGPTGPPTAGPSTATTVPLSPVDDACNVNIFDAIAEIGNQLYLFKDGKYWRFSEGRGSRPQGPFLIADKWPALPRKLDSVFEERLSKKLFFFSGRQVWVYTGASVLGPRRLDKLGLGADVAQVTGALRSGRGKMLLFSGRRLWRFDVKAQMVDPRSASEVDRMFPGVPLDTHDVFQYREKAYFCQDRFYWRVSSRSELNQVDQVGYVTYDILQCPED

fluorescent intensity of probes A and B after incubation of the enzyme with inhibitor (MMP [1]): significantly reduced
Compound: CNC(=O)[C@@H](NC(=O)[C@H](CC(C)C)[C@H](O)C(=O)NO)C(C)(C)C [Marimastat]

selectivity for MMP-2/9 [2]: better selectivity for MMP-2/9
Km (plasmin [3]): 0.36 µM
Km (human MMP-2): 0.06 µM
Km (human MMP-9): 0.53 µM
stability / susceptibility to plasmin (plasmin [4]): susceptible to plasmin
Km (MMP-13 [5]): 0.22 µM
MMP-9 (83 kDa), fold change in fluorescent signal (MMP-9): 11.20
MMP-13 (52 kDa), fold change in fluorescent signal (MMP-13 [6]): 34.52
Compound: FAM-PEG2-G-P-K-G-L-K-G-K(MR)-PEG2-k-PEG2-k-3 probe elements ({5FAM-PEG2′}-GPKGLKG; not fully specified (C-terminus); also: three probe elements on a scaffold) [AMF-106]

selectivity for MMP-2/9 [2]: better selectivity for MMP-2/9
stability / susceptibility to plasmin (plasmin [4]; listed as Probe B): plasmin resistant
stability / susceptibility to plasmin (plasmin [4]; listed as SVC-01-186): stable
MMP-9 (83 kDa), fold change in fluorescent signal (MMP-9): 6.49
MMP-13 (52 kDa), fold change in fluorescent signal (MMP-13 [6]): 26.65
Compound: FAM-PEG2-PFGNleKβA-K(MR)-PEG2-k-PEG2-k-3 probe elements ({5FAM-PEG2′}-PFG[Nle]K[βAla]-{K(MR)-PEG2′-code k-PEG2′-code k}; reading uncertain; also: three probe elements on a scaffold) [SVC-186]
activation in the presence of MMP-2/9/13 in the lung (MMP-2/9/13 in the lung): able to activate

MMP-9 (83 kDa), fold change in fluorescent signal (MMP-9): 4.84
MMP-13 (52 kDa), fold change in fluorescent signal (MMP-13 [6]): 9.00
Compound: FAM-PEG2-PFGNleKβA-K[K(MR)2]-PEG2-k-PEG2-k-3 probe elements [SVC-195]
signal-to-noise ratio (MMP [7]): did not further improved
